From patent publication US20060156431A1, “L-gulose dependent vitamin C synthesis” (Vlaams Interuniversitair Instituut Voor Biotechnologie VZW, priority 2003, published 2006)
Read-outs that look alike come from different tables or passages of the source.

How the values were obtained:
[1] = target: T1, GDP-Man 3″,5″-epimerase of A. thaliana (Arabidopsis thaliana, UniProt Q93VR3); assay: GDP-Man 3″,5″-epimerase assay (HPLC); assay type: biochemical; settings: for inhibition at 1000 µM: read-out: inhibition of the epimerase activity; for epimerase activity: purified epimerase, exogenously added dinucleotide
T1 construct: The hydroxylapatite fraction of native epimerase (11) was used; endogenous in cells; host or cells: Arabidopsis thaliana ecotype Columbia cell suspensions; enzyme purified, hydroxylapatite fraction
T1 sequence (Q93VR3 1-377): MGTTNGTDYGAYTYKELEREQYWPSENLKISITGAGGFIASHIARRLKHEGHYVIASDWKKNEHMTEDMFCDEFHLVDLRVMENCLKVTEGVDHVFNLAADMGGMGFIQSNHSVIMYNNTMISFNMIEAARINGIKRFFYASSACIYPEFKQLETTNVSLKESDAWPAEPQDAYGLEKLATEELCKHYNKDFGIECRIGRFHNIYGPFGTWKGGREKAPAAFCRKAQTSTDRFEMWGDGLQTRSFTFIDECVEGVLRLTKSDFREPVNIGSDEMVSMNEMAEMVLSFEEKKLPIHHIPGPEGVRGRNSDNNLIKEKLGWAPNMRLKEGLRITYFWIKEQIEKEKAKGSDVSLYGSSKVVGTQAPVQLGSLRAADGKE
Protocol: Characterization of GDP-Man 3″,5″-epimerase of A. thaliana. (A) Steady-state parameters of the native (purified from A. thaliana cell suspensions) and recombinant enzyme. The hydroxylapatite fraction of native epimerase (11) was used. The affinity-purified recombinant enzymes were used. […] Double reciprocal plots are shown and each line represents a fixed GDP concentration: 0 μM, circles; 2 μM, triangles; and 4 μM, squares. V0 is pmol of GDP-L-Gal/L-Gul produced per minute. GDP-Man concentrations were from 1.1 to 5.5 μM. Inset: Secondary plot of slopes versus GDP concentration was used to determine the Ki value for GDP. […] Incubations contained GDP-[^14C]Man (3.4 μM), increasing amounts of GDP-L-Fuc, and an aliquot of the hydroxylapatite fraction of epimerase. Kinetic measurements were performed in duplicates; standard deviation was equal or less than 5%.

[2] = tested on: Chlorella epimerase; settings: read-out: Km for the GDP-Man substrate; cited from earlier work
[3] = tested on: A. thaliana cell suspensions; assay: In vivo labeling of A. thaliana cell suspensions with D-[U-14C]Man and L-AA determination; assay type: cell-based, Arabidopsis thaliana; settings: pre-incubated 20 hours with 2.5 mM compound; for [^14C]-labeled L-AA / [^14C]-labeled L-AA (% of control): labeled two hours with D-[U-14C]Man; for Cold L-AA: acid extracts, HPLC
Protocol: GDP-Man 3″,5″-epimerase assay and L-AA determination. The GDP-Man 3″,5″-epimerase activity and L-AA were measured by the HPLC method as described (13), with the exception that the concentration of methanol in solvent A was 0.5% and the flow rate was 0.8 ml/min.
In vivo labeling of A. thaliana cell suspensions with D-[U-14C]Man. In vivo labeling of A. thaliana cells was performed as described (13). Cell suspensions were pre-adapted to labeling conditions for 20 hours in the presence or absence of exogenous L-AA or its precursors (2.5 mM), followed by two hours labeling with 1 μCi of D-[U-14C]Man. L-AA was extracted with 5% metaphosphoric acid containing 2 mM DTT and 1 mM EDTA.

Compound	Cold L-AA (% of control) [3]	[^14C]-labeled L-AA [3]	[^14C]-labeled L-AA (% of control) [3]	Cold L-AA [3] [nmol/g fw]	other results
O=C1O[C@H]([C@H](O)CO)C(O)=C1O [D-isoascorbic acid]					inhibition of the epimerase activity ([1]; 1 mM): no effect
Nc1nc2c(ncn2[C@@H]2O[C@H](COP(=O)(O)OP(=O)(O)O[C@H]3O[C@H](CO)[C@@H](O)[C@H](O)[C@H]3O)[C@@H](O)[C@H]2O)c(=O)[nH]1 [GDP-Glc, guanosine diphospho-D-glucose]					Ki [1]: 5 µM
C[C@@H]1O[C@H](OP(=O)(O)OP(=O)(O)OC[C@H]2O[C@@H](n3cnc4c(=O)[nH]c(N)nc43)[C@H](O)[C@@H]2O)[C@@H](O)[C@H](O)[C@@H]1O [GDP-L-Fuc, Guanosine diphospho-L-fucose]					IC50 [1]: 70 µM; type of inhibition of the epimerase ([1]; even at 1 mM concentration): partial inhibition
Nc1nc2c(ncn2[C@@H]2O[C@H](COP(=O)(O)OP(=O)(O)O[C@H]3O[C@H](CO)[C@@H](O)[C@H](O)[C@@H]3O)[C@@H](O)[C@H]2O)c(=O)[nH]1 [GDP-Man, GDP-D-mannose]					Km ([1]; native epimerase, FIG. 1A, read-out: Km for the GDP-Man substrate): 4.4 µM; Km [2]: 96 µM
Nc1nc2c(ncn2[C@@H]2O[C@H](COP(=O)(O)OP(=O)(O)O)[C@@H](O)[C@H]2O)c(=O)[nH]1 [GDP]					Ki [1]: 0.7 µM
O=C1O[C@H]([C@@H](O)CO)C(O)=C1O [L-AA, L-ascorbic acid]	832 % of control	448 10^−3 × cpm/mg fw	33 % of control	1764	inhibition at 1000 µM ([1]; 1 mM): 15%
O=C1O[C@H]([C@@H](O)CO)[C@H](O)[C@@H]1O [L-Gulono-1,4-lactone, L-gulono-1,4-lactone]	165 % of control	722 10^−3 × cpm/mg fw	54 % of control	345	
O=C[C@@H](O)[C@@H](O)[C@H](O)[C@@H](O)CO [L-Gulose, L-gulose]	190 % of control	872 10^−3 × cpm/mg fw	65 % of control	403	
O=C1O[C@H]([C@@H](O)CO)[C@@H](O)[C@@H]1O [L-galactono-1,4-lactone]	170 % of control	790 10^−3 × cpm/mg fw	59 % of control	360	inhibition at 1000 µM [1]: 14%
O=C[C@@H](O)[C@H](O)[C@H](O)[C@@H](O)CO [L-galactose]	315 % of control	423 10^−3 × cpm/mg fw	32 % of control	668	inhibition of the epimerase activity ([1]; 1 mM): no effect
NC(=O)c1ccc[n+]([C@@H]2O[C@H](COP(=O)([O-])OP(=O)(O)OC[C@H]3O[C@@H](n4cnc5c(N)ncnc54)[C@H](O)[C@@H]3O)[C@@H](O)[C@H]2O)c1 [NAD+]					epimerase activity [1]: 145 % of control
NC(=O)C1=CN([C@@H]2O[C@H](COP(=O)(O)OP(=O)(O)OC[C@H]3O[C@@H](n4cnc5c(N)ncnc54)[C@H](O)[C@@H]3O)[C@@H](O)[C@H]2O)C=CC1 [NADH]					epimerase activity [1]: 78 % of control
NC(=O)c1ccc[n+]([C@@H]2O[C@H](COP(=O)([O-])OP(=O)(O)OC[C@H]3O[C@@H](n4cnc5c(N)ncnc54)[C@H](OP(=O)(O)O)[C@@H]3O)[C@@H](O)[C@H]2O)c1 [NADP+]					epimerase activity [1]: 110 % of control
NC(=O)C1=CN([C@@H]2O[C@H](COP(=O)(O)OP(=O)(O)OC[C@H]3O[C@@H](n4cnc5c(N)ncnc54)[C@H](OP(=O)(O)O)[C@@H]3O)[C@@H](O)[C@H]2O)C=CC1 [NADPH]					epimerase activity [1]: 88 % of control
adenosine diphospho-D-glucose [ADP-D-Glc]					effect on the enzyme activity ([1]; adenosine derivative): no effect
